Assay results published in US20240398853A1, “MULTIVALENT POLYCATION INHIBITION OF POLYANIONS IN BLOOD” (The Regents of the University of Michigan, priority 2021, published 2024).

Experiments:
[1] = free ligand, value marked with a reference superscript; cited from earlier work
[2] = Isothermal titration calorimetry, binding to polyP; conditions: for Kd: pH 7.4, 25° C.
Procedure: The interaction of MPI and polyP was carried out at 25° C. using a MicroCal iTC200 calorimeter (MicroCal, Northampton, USA). Samples were prepared by making stock solutions of at least 100× the desired concentration at high volume and filtered using 0.2 µm filters (Millex, Merck Millipore Ltd). The pH of each solution was then measured to ensure that they were between 7.35 and 7.40. Prior to titration, stock solutions were diluted with the same filtered buffer and degassed. Titrations consisted of 25 consecutive injections of 1.5 μL volume and 5 sec duration each, with a 3 min interval between injections with only the first injection between 0.2 μL volume, not used as part of the fit. Heat of dilution was measured by injecting MPI solution into buffer alone and was subtracted from the experimental curves prior to data analysis. The resulting data were fit into a single set of identical sites model using the MicroCal ORIGIN software supplied with the instrument.

[3] = 31P NMR titration of polyP with MPI or CBG; assay type: binding; conditions: HEPES buffer, 150 mM NaCl, 298 K
Procedure: NMR spectra for MPI and polyP binding interaction studies were acquired on a Bruker 500 MHz instrument (Bruker Biospin, Milton, ON), operating at a ^1H frequency of 499.4 MHz. ^31P NMR spectra were collected at 298 K. The NMR sample was prepared to yield 0.5 mM of polyphosphate in HEPES buffer with 150 mM NaCl and 10% D2O (by volume) for a total sample volume of 600 μL. All polyphosphate concentrations are provided in terms of the concentration of phosphate monomer. For the binding study, polyphosphate was first prepared with a known concentration of internal standard of trimethylphosphate. MPI was titrated in, and the total volume was increased by 1.5 μL of the 600 μL total per addition.
While ITC experiments indicate the behavior of the amine functionalities on the CBGs during the MPI-polyP binding event, the effect of the MPI on the polyP phosphate backbone have previously been unknown. To determine the interaction between the MPI and polyP backbone, and how the interaction effects the electronic environment of the phosphorus nuclei, ^31P NMR titration experiments were performed. […] While it is not possible to quantify the number of bound phosphate units with MPI or CBG, it is possible to visualize the change in electronic environment of the phosphorus nuclei and extrapolate the binding behavior between MPI and polyP.

human plasma clotting = assay: Plasma clot formation by turbidity analysis in a TF-triggered system (no polyP); assay type: biochemical
Procedure: Microplate turbidimetric clotting assays were performed with platelet-poor plasma (PPP) obtained from three donors. MPI solutions were prepared in 20 mM HEPES (pH 7.4, 150 mM NaCl) buffer. Clotting was initiated in 90 μL of 30% diluted PPP spiked with MPI (dilution 1:10) by adding 5 μL of recombinant tissue factor (TF; Innovin (1:10,000; […])) and 5 μL of CaCl2) (20 mM). Clotting was evaluated by monitoring changes in turbidity (A405 nm) every 30 seconds with the Spectramax microplate reader for 2 hours at 37° C. Clotting parameters including lag time were calculated and considered as the time point when an exponential increase in absorbance was first observed.

tinzaparin (LMWH) = assay: Heparin reversal activity by aPTT in heparinized plasma; assay type: biochemical, human; conditions: tinzaparin 1 U/mL
Procedure: (§1) Stock MPI, UHRA or protamine sulfate solutions were prepared in 20 mM HEPES buffer (pH 7.4 and 150 mM NaCl). Unfractionated heparin (Fresenius Kabi, Canada) or tinzaparin (LEO Pharma, Canada), 4 U/mL and 1 U/mL final concentrations, respectively, were incubated with sodium citrate anticoagulated pooled normal plasma (Affinity Biologicals, Canada) to prepare heparinized plasma, and were used to study the neutralization activity by various MPI and UHRA constructs. The neutralization activity of MPI, UHRA and protamine sulfate on the coagulation cascade was examined by mixing 20 μL of MPI or UHRA or protamine solution with 180 μL of heparin derivative incubated plasma ( 1/10 v/v). The final concentration of MPI, UHRA and protamine in plasma ranged from 0.025 mg/mL to 0.25 mg/mL. 200 μL of aPTT reagent (Dade®Actin®FS Activated PTT, Siemens/Dade-Behring) was then added to the neutralization reagent-plasma sample and 100 μL of this resulting mixture was transferred to cuvette-strips and incubated at 37° C. for 3 minutes. The clotting time was measured on a STart® 4 coagulometer (Diagnostica Stago, France) and began when 50 μL of 25 mM CaCl2) was added into each cuvette. Saline added to plasma with and without heparin-derivatives was used as a control for the experiments. The percentage of neutralization was calculated from the difference in the clotting times observed for MPI/UHRA/protamine versus control saline and heparinized plasma. All experiments were performed with pooled plasma of 20 donors in triplicates and the average values (mean±SD) are reported.

[4] = tested on: Unfractionated heparin (UFH); assay: as above; assay type: biochemical, human; conditions: UFH 4 U/mL, dose range 0-250 μg/mL
Procedure: as §1

mice = mice (Shenoi); cited from earlier work

Row | binding affinity to LC polyP (range in words) ([2]; ITC, FIG. 7) | Kd ([2]; P45, HEPES, 10 mM NaCl) | Kd ([2]; P700, HEPES buffer) | binding behaviour towards P45 in 31P NMR titration [3] | Molecule | log K, H2L + H ⇌ H3L [1] | log K, HL + H ⇌ H2L [1] | log K, L + H ⇌ HL [1] | log K, H3L + H ⇌ H4L [1] | plasma clot time (lag time) compared to buffer control (human plasma clotting; MPI and PS 200 μg/mL, UHRA 75 μg/mL) | increase in clot time compared to buffer control (human plasma clotting; pooled plasma) | LMWH neutralization (tinzaparin (LMWH)) | UFH neutralization in heparinized plasma [4] | anticoagulant (overdose) behavior at higher doses [4] | lethal dose (mice)
1 | millimolar range | 7 mM | 9 mM | weak interaction | CN(C)CCN(C)CCN(C)C [CBG I, N,NN′,N″,N″-pentamethyldiethylenetriamine] | 2.09 ± 0.02 | 8.41 ± 0.02 | 9.22 ± 0.02 |  |  |  |  |  |  | 
2 |  |  |  |  | CN(C)CCN(CCN(C)C)CCN(C)C [Me6-TREN] | 7.44 | 8.68 | 9.50 | <1.0 |  |  |  |  |  | 
3 |  |  |  |  | protamine sulfate |  |  |  |  | performed significantly worse than MPI candidates | ~3 fold | almost no neutralization activity on LMWH | exhibits heparin neutralization at lower doses | clear anticoagulant behavior at higher doses | 30 mg/kg
